US9459254B2, “Method for determining sensitivity to an anticancer agent” (KEIO UNIVERSITY, priority 2009, dated 2016)

What was measured:
DLD-1 cells [1] = assay: SELDI-TOF MS intracellular protein expression after drug exposure, DLD-1; assay type: cell-based, human
Method: (§1) The 5-FU+SN-38 combination concentration was adjusted to the following four levels: 2 μM+10 nM, 2 μM+100 nM, 100 μM+10 nM, and 100 μM+100 nM, the 5-FU concentration (exposure to single agent) was adjusted to 2 μM and 100 μM, and the SN-38 concentration (exposure to single agent) was adjusted to 10 nM and 100 nM. In addition, the exposure test was conducted at a drug-free concentration (control). That is, nine concentrations in total were employed. Drug exposure time was adjusted to the following four periods of time: 0 hour (just before exposure), 4 hours, 24 hours, and 48 hours. After completion of exposure, cell count was performed, and intracellular proteins were extracted.
(§2) The medium was removed from the dish and washed thrice with ice-cooled PBS. The cells on the dish was collected by scraping with a rubber policeman. The thus-obtained cell suspension was transferred to a 1.5-mL microtube. The cell suspension was centrifuged at 4° C. and 1,200×g for 10 minutes, and the cells were recovered. After removal of the supernatant, a cell lysis buffer (9 mol/L urea, 2% CHAPS, 1 mM DTT, protease-inhibitor cocktail (Sigma)) was added in a volume of 200 μL with respect to 10,000,000 cells. The liquid was subjected to untrasonic treatment under cooling with ice. The thus-treated product was centrifuged at 4° C. and 16,000×g for 20 minutes, and the supernatant was quickly frozen with liquid nitrogen. The frozen product was stored at −80° C. before analysis. An aliquot of the supernatant was subjected to protein quantification (DC Protein Assay Kit, Bio-Rad).
(§3) The protein sample was mixed with a cell lysis buffer (excluding protease inhibitor), to thereby adjust the protein concentration to 2.5 mg/mL. The liquid was further mixed with a dilution/washing buffer (pH: 4.5, 50 mM sodium acetate buffer) (hereinafter referred to simply as “buffer”), to a protein concentration of 0.5 mg/mL. The thus-prepared sample (100 μL) was applied to spots of a cation-exchange ProteinChip array (CM10, Bio-Rad) which had been conditioned in advance with the same buffer. […]

HCT116 cells [2] = assay: SELDI-TOF MS intracellular protein expression after drug exposure, HCT116; assay type: cell-based, human
Method: as §1, §2, §3

HCT116 cells [3] = assay: MTS assay cell viability after drug exposure, HCT116
Method: (§4) Two colorectal cancer lines (HCT116 and DLD-1, obtained from ECACC) were exposed to a drug, and 48 hours and 72 hours after drug exposure, cell viability was determined by means of an MTS assay (CellTiter96™ AQueous One Solution Cell Proliferation Assay, Promega). Drug exposure conditions were as follows. 5-FU (single agent) was used at the following 11 concentrations: control (0 μM), 0.001 μM, 0.01 μM, 0.1 μM, 1 μM, 3 μM, 10 μM, 30 μM, 100 μM, 1,000 μM, and 10,000 μM. SN-38 (single agent) was used at the following 11 concentrations; control (0 nM), 0.001 nM, 0.01 nM, 0.1 nM, 0.3 nM, 1 nM, 3 nM, 10 nM, 30 nM, 100 nM, and 1,000 nM. In the case of 5-FU/SN-38 combination, 5-FU was used at 2 μM, 10 μM, 30 μM, and 100 μM (4 concentrations), and SN-38 was used at 0.001 nM, 0.01 nM, 0.1 nM, 0.3 nM, 1 nM, 3 nM, 10 nM, 30 nM, 100 nM, and 1,000 nM (10 concentrations); i.e., 40 concentrations were employed. […]
(§5) Sensitivity analysis was performed from viability data calculated from MTS assay results. The presence or absence of combined effect was determined through comparison of viability obtained by exposure to a combination with that obtained by exposure to a single agent at the same concentration as employed at the exposure to the combination.

DLD-1 cells [4] = assay: MTS assay cell viability after drug exposure, DLD-1
Method: as §4, §5

[5] = compared with CPT-11; cited from earlier work

| SMILES | intracellular protein A level after drug exposure (DLD-1 cells [1]) | intracellular protein A level (m/z 16,450 to 16,620) after drug exposure (HCT116 cells [2]) | cell viability (HCT116 cells [3]; HCT116, 100 μM 5-FU, 48 hours) | cell viability (DLD-1 cells [4]; DLD-1, 100 μM 5-FU, 48 hours) | intracellular protein B level after drug exposure (DLD-1 cells [1]) | anti-tumor activity relative to that of CPT-11 [5] | intracellular protein B level (m/z 22,080 to 22,310) after drug exposure (HCT116 cells [2]) | cell viability (HCT116 cells [3]; HCT116, 100 nM SN-38, 72 hours) | cell viability (DLD-1 cells [4]; DLD-1, 100 nM SN-38, 72 hours) |
| --- | --- | --- | --- | --- | --- | --- | --- | --- | --- |
| O=c1[nH]cc(F)c(=O)[nH]1 [5-FU, Fluorouracil] | no significant difference | protein level increase | about 24% | about 49% |  |  |  |  |  |
| CCc1c2c(nc3ccc(O)cc13)-c1cc3c(c(=O)n1C2)COC(=O)[C@]3(O)CC [SN-38, 7-ethyl-10-hydroxycamptothecin] | no significant difference | protein level increase |  |  | no significant difference | about 100 times to some thousand times | protein level increase | about 24% | about 76% |
